≈ marks a conversion by molar mass, not a printed value.
Experiments:
[1] = system: Candida albicans; experiment: Antifungal activity against fluconazole-sensitive Candida albicans ATCC 10231 after 48 hr by broth dilution method; assay type: functional; conditions: ATCC 10231, 48 h
[2] = system: Candida albicans; experiment: Antifungal activity against fluconazole-resistant Candida albicans NCIM 3446 after 48 hr by broth dilution method; assay type: functional; conditions: NCIM 3446, 48 h

CSc1ccc(/C=C/C(=O)c2ccc(Cl)cc2Cl)cc1
MIC [1]: 50 µg/mL (≈ 155 µM)
MIC [2]: 200 µg/mL (≈ 619 µM)

COc1ccc(/C=C/C(=O)c2ccc(Br)s2)cc1OC
MIC [1]: 50 µg/mL (≈ 142 µM)
MIC [2]: 100 µg/mL (≈ 283 µM)

CSc1ccc(/C=C/C(=O)c2ccc(Cl)cc2)cc1
MIC [1]: 10 µg/mL (≈ 34.6 µM)
MIC [2]: 20 µg/mL (≈ 69.3 µM)

CSc1ccc(/C=C/C(=O)c2ccc(Br)s2)cc1
MIC [1]: 40 µg/mL (≈ 118 µM)
MIC [2]: 50 µg/mL (≈ 147 µM)

CSc1ccc(/C=C/C(=O)c2ccccc2)cc1
MIC [1]: 20 µg/mL (≈ 78.6 µM)
MIC [2]: 40 µg/mL (≈ 157 µM)

CSc1ccc(/C=C/C(=O)c2ccccc2O)cc1
MIC [1]: 20 µg/mL (≈ 74 µM)
MIC [2]: 20 µg/mL (≈ 74 µM)

COc1ccc(C(=O)/C=C/c2ccc(SC)cc2)cc1
MIC [1]: 10 µg/mL (≈ 35.2 µM)
MIC [2]: 20 µg/mL (≈ 70.3 µM)

CSc1ccc(/C=C/C(=O)c2ccc(-c3ccccc3)cc2)cc1
MIC [1]: 100 µg/mL (≈ 303 µM)
MIC [2]: 250 µg/mL (≈ 757 µM)

CSc1ccc(/C=C/C(=O)c2ccc(F)cc2)cc1
MIC [1]: 5 µg/mL (≈ 18.4 µM)
MIC [2]: 8 µg/mL (≈ 29.4 µM)

O=C(/C=C/c1ccc(-c2ccccc2)cc1)c1ccc(Br)s1
MIC [1]: 100 µg/mL (≈ 271 µM)
MIC [2]: 250 µg/mL (≈ 677 µM)

CSc1ccc(/C=C/C(=O)c2ccc(Br)cc2)cc1
MIC [1]: 40 µg/mL (≈ 120 µM)
MIC [2]: 100 µg/mL (≈ 300 µM)

O=C(/C=C/c1ccc(-c2ccccc2)cc1)c1cccs1
MIC [1]: 100 µg/mL (≈ 344 µM)
MIC [2]: 250 µg/mL (≈ 861 µM)

COc1ccc(C(=O)/C=C/c2ccc(OC)c(OC)c2)cc1
MIC [1]: 20 µg/mL (≈ 67 µM)
MIC [2]: 10 µg/mL (≈ 33.5 µM)

COc1ccc(/C=C/C(=O)c2cccs2)cc1
MIC [1]: 20 µg/mL (≈ 81.9 µM)
MIC [2]: 20 µg/mL (≈ 81.9 µM)

CSc1ccc(/C=C/C(=O)c2ccc(O)cc2)cc1
MIC [1]: 20 µg/mL (≈ 74 µM)
MIC [2]: 40 µg/mL (≈ 148 µM)

COc1ccc(/C=C/C(=O)c2ccc(Br)s2)cc1
MIC [1]: 50 µg/mL (≈ 155 µM)
MIC [2]: 100 µg/mL (≈ 309 µM)

CSc1ccc(/C=C/C(=O)c2cccs2)cc1
MIC [1]: 5 µg/mL (≈ 19.2 µM)
MIC [2]: 5 µg/mL (≈ 19.2 µM)

CSc1ccc(/C=C/C(=O)c2cccc(O)c2)cc1
MIC [1]: 20 µg/mL (≈ 74 µM)
MIC [2]: 40 µg/mL (≈ 148 µM)

OC(Cn1cncn1)(Cn1cncn1)c1ccc(F)cc1F [FLUCONAZOLE]
MIC [1]: 20 µg/mL (≈ 65.3 µM)
MIC [2]: 100 µg/mL (≈ 327 µM)

COc1ccc(/C=C/C(=O)c2cccs2)cc1OC
MIC [1]: 10 µg/mL (≈ 36.5 µM)
MIC [2]: 20 µg/mL (≈ 72.9 µM)

CSc1ccc(/C=C/C(=O)c2ccc([N+](=O)[O-])cc2)cc1
MIC [1]: 50 µg/mL (≈ 167 µM)
MIC [2]: 100 µg/mL (≈ 334 µM)
